In patent US20240315990A1, “Adelmidrol For Use In Diseases Characterized By Insufficient Agonism Of PPAR-GAMMA Receptor” (Epitech Group S.P.A., priority 2016, published 2024):

Assays:
TNF-α and IL1β = assay: bleomycin-induced lung lesion, dosage of inflammatory cytokines TNF-α and IL1β; type: in vivo, CD1 male mice; settings: BLM-treated mice
Experimental: (§1) CD1 male mice ((CD1(ICR) mice (25-35 g; Harlan Nossan, Italy) were accommodated in a controlled environment and fed with standard food and water.
(§2) Using a catheter (tracheotomy tube), the mice received a single intratracheal instillation of physiological solution (0.9%) or saline containing bleomycin sulfate (0.1 U/mouse) in a final volume of 100 μL, and the liquid was immediately followed by 300 μL of air in order to also ensure the distribution thereof in the distal airways.
TNF-α and IL1β are also regarded as the biochemical markers of inflammation and fibrosis of the lung. The results obtained are shown in the chart in FIG. 9.

[1] = system: inflammatory cells in BAL fluid; assay: bleomycin-induced lung lesion, inflammatory cells in bronchoalveolar lavage (BAL) fluid; type: in vivo, CD1 male mice; settings: BLM-treated mice, BAL seven days after induction
Experimental: as §1, §2
Seven days after the induction of fibrosis, the mice were sacrificed and their trachea was immediately cannulated with an intravenous catheter made of polyethylene (Neo Delta Ven. 2, Delta Med, Viadana, Italy) equipped with a 1 mL 24-gauge syringe. The lungs were washed once with 0.5 mL of D-PBS (GIBCO, UK). In 95% of mice, the recovery volume exceeds 0.4 mL. The BAL fluid was centrifuged at 800 rpm, the surfactant was removed and the cell pellet was resuspended in PBS. The number of cells in the BAL fluid was obtained by counting on a hemocytometer in the presence of Trypan Blue. Cytospins were prepared from the cells resuspended in PBS. The slides were dried in dry air and then colored with Diff-Quick Set Stain (Diff-Quick, Baxter Scientific, Miami, FL). Using the optical microscopy, a total of 400 cells was examined from each sample in randomly chosen fields. […]

[2] = system: bleomycin-induced lung edema; assay: bleomycin-induced lung lesion, lung edema (wet vs dry lung weight); type: in vivo, CD1 male mice
Experimental: CD1 male mice ((CD1(ICR) mice (25-35 g; Harlan Nossan, Italy) were accommodated in a controlled environment and fed with standard food and water. Using a catheter (tracheotomy tube), the mice received a single intratracheal instillation of physiological solution (0.9%) or saline containing bleomycin sulfate (0.1 U/mouse) in a final volume of 100 μL, and the liquid was immediately followed by 300 μL of air in order to also ensure the distribution thereof in the distal airways. The weight of the wet lungs was calculated after 28 days upon injecting bleomycin by means of careful excision of the lung from the adjacent tissues. The lungs were exposed for 48 hours at 180° C. and the dry weight was then assessed. The lung water content was calculated as wet weight-to-dry weight ratio. In order to assess the degree of the existing lung edema, at the end of the experiment, even in untreated animals, the comparison of the wet lung weight to the lung weight after water removal was carried out. The results are shown in the chart in FIG. 6.

[3] = system: carrageenan-induced rat paw edema; assay: carrageenan-induced rat paw edema, foot volume by plethysmometer; type: in vivo
Experimental: The experimental model of carrageenan-induced rat paw edema was used.
The experimental model of carrageenan-induced paw edema was induced by sub-plantarily injecting a solution of carrageenan (containing 50 μl of sterile saline containing 1% carrageenan) in the animal's right paw (rat).
The foot volume was measured at specific time intervals by means of a plethysmometer (Ugo Basile, Milan, Italy). The increase in plantar volume was assessed as the difference between the value obtained at the specific time intervals and the volume at baseline (time 0) measured immediately before the administration of carrageenan.
The rats (10 animals per group) were divided into the following experimental groups: • CAR+physiological solution; • CAR+Adelmidrol (3 mg/kg); Adelmidrol was administered i.p. when injecting CAR; • CAR+Adelmidrol (10 mg/kg); Adelmidrol was administered i.p. when injecting CAR.

myeloperoxidase (MPO) = myeloperoxidase (MPO) activity in the bowel of DNBS-treated animals; type: in vivo, rat; settings: Adelmidrol 10 mg/kg orally
Experimental: The determination of the activity of the enzyme myeloperoxidase (MPO), which is considered an important marker of neutrophil activity in the bowel, fully confirms the effect of Adelmidrol on the colonic mucosa. The test was carried out by the method described in the literature (Morampudi V. et al. Journal of Visualized Experiments—February 2014; 84:1-8) on DBNS-treated animals, not treated animals, or animals orally treated with Adelmidrol (10 mg/kg).
The results are shown in the chart in FIG. 4.

[4] = system: DNBS-induced bowel tissue lesion; assay: DNBS-induced bowel tissue lesion, microscope lesion score; type: in vivo; settings: rat, DNBS 15 mg intrarectal, Adelmidrol 10 mg/kg per os in 2% CMC
Experimental: Rats were anesthetized with ethyl ether in order to ensure the animals' waking up after 4-5 minutes. 60 mg/mL DNBS was dissolved in 50% ethanol in water. An amount of 0.25 ml of alcoholic solution (containing 15 mg of DNBS) was instilled to each animal, using an 8 cm long intrarectal catheter made of silicone so as to reach […]. During the experiment, the possible ejection of the solution from the rectum when the animal awoke was carefully monitored, taking it into account in the final assessment. The assessment of the bowel lesion was performed by taking, upon sacrifice of the animal, the entire bowel which was adequately washed with physiological solution and immediately examined under a microscope. Adelmidrol was administered per os through a gastric cannula in an amount of 10 mg/kg dissolved in aqueous solution containing 2% CMC (carboxymethylcellulose). The bowel tissue lesion was quantized through microscope inspection by two different observers. […]

Structure (SMILES): O=C(CCCCCCCC(=O)NCCO)NCCO [Adelmidrol, azelaic acid diethanolamide]
- IL1β level in the lung (FIG. 9) (TNF-α and IL1β): considerably reduces the levels of both inflammatory cytokines
- TNF-α level in the lung (FIG. 9) (TNF-α and IL1β): considerably reduces the levels of both inflammatory cytokines
- number of macrophages, neutrophils and lymphocytes in BAL fluid (FIGS. 7 and 8) [1]: reduces the number of macrophages, neutrophils and lymphocytes in a very significant manner
- difference in lung weight between fresh organ and dried organ (FIG. 6) ([2]; mice not treated with BLM): does not change the difference in lung weight between fresh organ and dried organ
- difference in lung weight between fresh organ and dried organ (FIG. 6) ([2]; mice treated with BLM and Adelmidrol vs BLM and inert vehicle): considerably lower
- effect on carrageenan-induced edema (in words) ([3]; 3 and 10 mg/kg i.p.): reduction of the carrageenan-induced edema with a dose-dependent action
- paw edema as a percentage with respect to the edema produced by carrageenan alone ([3]; Adelmidrol 3 mg/kg i.p. when injecting CAR, 0 min.): 101.2 percentage
- paw edema as a percentage with respect to the edema produced by carrageenan alone ([3]; Adelmidrol 3 mg/kg i.p. when injecting CAR, 30 min): 86.7 percentage
- paw edema as a percentage with respect to the edema produced by carrageenan alone ([3]; Adelmidrol 3 mg/kg i.p. when injecting CAR, 1 hr): 71.9 percentage
- paw edema as a percentage with respect to the edema produced by carrageenan alone ([3]; Adelmidrol 3 mg/kg i.p. when injecting CAR, 2 hr): 72.3 percentage
- paw edema as a percentage with respect to the edema produced by carrageenan alone ([3]; Adelmidrol 3 mg/kg i.p. when injecting CAR, 3 hr): 69.8 percentage
- paw edema as a percentage with respect to the edema produced by carrageenan alone ([3]; Adelmidrol 3 mg/kg i.p. when injecting CAR, 4 hr): 67.2 percentage
- paw edema as a percentage with respect to the edema produced by carrageenan alone ([3]; Adelmidrol 3 mg/kg i.p. when injecting CAR, 5 hr): 67.4 percentage
- paw edema as a percentage with respect to the edema produced by carrageenan alone ([3]; Adelmidrol 10 mg/kg i.p. when injecting CAR, 0 min.): 102.6 percentage
- paw edema as a percentage with respect to the edema produced by carrageenan alone ([3]; Adelmidrol 10 mg/kg i.p. when injecting CAR, 30 min): 81.6 percentage
- paw edema as a percentage with respect to the edema produced by carrageenan alone ([3]; Adelmidrol 10 mg/kg i.p. when injecting CAR, 1 hr): 68.7 percentage
- paw edema as a percentage with respect to the edema produced by carrageenan alone ([3]; Adelmidrol 10 mg/kg i.p. when injecting CAR, 2 hr): 63.8 percentage
- paw edema as a percentage with respect to the edema produced by carrageenan alone ([3]; Adelmidrol 10 mg/kg i.p. when injecting CAR, 3 hr): 53.6 percentage
- paw edema as a percentage with respect to the edema produced by carrageenan alone ([3]; Adelmidrol 10 mg/kg i.p. when injecting CAR, 4 hr): 49.5 percentage
- paw edema as a percentage with respect to the edema produced by carrageenan alone ([3]; Adelmidrol 10 mg/kg i.p. when injecting CAR, 5 hr): 49.5 percentage
- MPO activity in the bowel, marker of neutrophil activity (FIG. 4) (myeloperoxidase (MPO)): anti-inflammatory effect on the bowel tissue
- bowel tissue lesion, score 0 to 8 by microscope inspection (FIG. 2, FIG. 3) [4]: important, significant protection of the colonic mucosa
